Measurements published in patent US20250340939A1 (priority 2021, published 2025).
Entries after “also recorded” stand apart in the source; their conditions may differ.

What was measured:
Type in all cases: binding
S-gene RNA (SARS-CoV2) = conditions: for dependence of thermophoretic/fluorescent signal on S-gene RNA concentration: no intercalating agent, red wavelength acquisition mode
S-HA gene = assay: MST of probes with artificial S-HA gene RNA (target length effect); conditions: red mode; FIG. 55
16S rRNA (E. coli) = assay: MST of Cy5 probes hybridized with total bacterial RNA; conditions: 100 μM Dox, red mode
Method: For bacterial RNA extraction, DH5α E. coli cells transfected with pcDNA3.1+ plasmid were grown overnight in LB medium containing 100 μg/ml ampicillin. The concentration of bacterial cells was determined according to OD at 600 nm, and ˜7·10^8 cells were taken for RNA extraction. 1 volume of bacterial culture was mixed with 2 volumes of RNAprotect® Bacteria Reagent (QIAGEN), vortexed for 5 seconds and incubated for 5 minutes at room temperature. The sample was then centrifuged for 10 minutes at 5,000×g at room temperature. After discarding supernatant, the pellet was resuspended in 100 μl TE buffer (10 mM Tris-HCl, 1 mM EDTA, pH 8) containing 1 mg/ml lysozyme. The samples were vortexed for 5 seconds, and then incubated at room temperature for 10 minutes with vortexing every 2 minutes. 1 ml TRIzol™ reagent was added to the sample. The sample was incubated at room temperature for 5 minutes, and then RNA extraction was performed as described hereinabove.
RNA was extracted from a sample, and after extraction, the RNA pellet was solubilized and hybridized with a specific fluorescently labeled DNA probe in a hybridization solution (as schematically depicted in FIG. 1). After hybridization, the hybridized sample was loaded into an MST capillary and inserted into a Monolith™ MST instrument (NanoTemper Technologies GmbH, Germany). This instrument included a blue mode (493 nm excitation, […]) and red mode ([…], 670 nm emission) for detection, and an I.R laser (1475 nm+/−15 nm) for heating. The intensities for both fluorescence detection (LED) and IR laser are adjustable, in a range of 0%-100%, wherein the temperature gradient generated has a temperature difference of up to about 2-8° C. Thermophoretic force was induced by infrared laser after 1 second, and maintained for 2 seconds, for a total of a 3 second measurement window (measurement time may optionally be further reduced to 2 seconds using current available MST instruments).
For RNA titration measurements, the extracted RNA solution was diluted to X2 and a serial dilution was prepared in water. Hybridization solutions were prepared as described herein, were X1 solution consisted of SSC buffer X1, 0.05% TWEEN™ 20 surfactant, and 1% formamide unless indicated otherwise. Fluorescently labeled probes were diluted from a 100 μM stock to 1:2400 in hybridization solution X2, denatured for 5 minutes at 100° C. and then incubated on ice for 5 minutes. If a mixture of uniformly labeled probes was prepared, the probes were diluted to a 1:1200 dilution in water and then diluted to 1:2400 with hybridization solution X4 (1:1/number of probes) to create equal molarity of the fluorescent dye. The probe solution was combined with the titration series in a 1:1 (v/v) ratio (10 μL total volume) and allowed to hybridize at a defined temperature for a given time as described. If post-hybridization with intercalating agents (ICA), doxorubicin or Midori™ Green, was performed, the samples were combined with ICA X5 solution 4:1 (v:v) ratio, 8 μL and 2 μL respectively. For cell based measurements, after extraction, the RNA pellet was solubilized and hybridized with a specific fluorescently labeled DNA probe in a hybridization solution (as schematically depicted in FIG. 1).
In order to determine the optimal hybridization temperature, one of the designed probes (16S1^Cy5) was incubated with increasing concentrations of bacterial RNA at different temperatures for 10 minutes. MST measurements were then performed using the red wavelength acquisition mode.
In order to assess the effect of human RNA presence and Dox post-hybridization on signal response, 16S1^Cy5 was incubated with increasing concentrations of bacterial or human total RNA at 71° C. for 2 hours. Equal amounts were then taken for post-hybridization incubation with Dox or hybridization buffer as a control. […]

Substance	dependence of thermophoretic/fluorescent signal on S-gene RNA concentration (S-gene RNA (SARS-CoV2))	direction of thermophoretic migration (MST curves) (16S rRNA (E. coli))	also measured
SN^Cy5: Cy5-tagged 22 nucleotide "non-binding" DNA probe (SEQ ID NO: 4), negative control (DNA CACCATTAGTGGGTTGGAAACC; DNA, backbone not given here; Cy5 dye label)	exhibits no change in MST signal; also recorded: no dependence; also recorded: did not generated dose-dependent signals	–	dependence of thermophoretic signal on S-gene RNA concentration (S-gene RNA (SARS-CoV2); in the presence of 100 μM Dox, red mode): not affected by RNA concentration
SE^Cy5: Cy5-tagged 22 nucleotide DNA probe (SEQ ID NO: 3) designed to bind at the edge of the S-gene (DNA CAATATCACCAAGGCAATCACC; DNA, backbone not given here; Cy5 dye label)	exhibited a thermophoretic signal dependent on S-gene RNA concentration	–	maximum signal response, S-gene vs S-HA gene (S-HA gene): considerably stronger in the presence of S-gene than in the presence of S-HA; direction of thermophoretic flux (S-gene RNA (SARS-CoV2); in the presence of 100 μM Dox, increasing S-gene, red mode): directed away from the heating zone; ΔFnorm (signal response) (S-gene RNA (SARS-CoV2); no Dox, FIG. 37): 54.41 ‰
16S4^Cy5: Cy5-labeled 36 nucleotide DNA probe (SEQ ID NO: 12) complementary to E. coli 16S rRNA (DNA GGCAGTCTCCTTTGAGTTCCCGGCCGGACCGCTGGC; DNA, backbone not given here; Cy5 dye label)	–	A similar effect was observed	–
16S7^Cy5: Cy5-labeled 45 nucleotide DNA probe (SEQ ID NO: 15) complementary to E. coli 16S rRNA (DNA CCCCCTCCATCAGGCAGTTTCCCAGACATTACTCACCCGTCCGCC; DNA, backbone not given here; Cy5 dye label)	–	migrated towards the heating zone in the presence of increasing concentrations of bacterial RNA, but away from the heating zone in the absence of bacterial RNA	sensitivity to target RNA concentration (linear regression slope) (16S rRNA (E. coli); single probes, 10 minutes hybridization): significantly more sensitive to target RNA concentration than the other tested probes
16S2^Cy5: Cy5-labeled 44 nucleotide DNA probe (SEQ ID NO: 10) complementary to E. coli 16S rRNA (DNA GCGGCCGTACTCCCCAGGCGGTCGACTTAACGCGTTAGCTCCGG; DNA, backbone not given here; Cy5 dye label)	–	migrated towards the heating zone both in the presence of bacterial RNA	–
